What all share (format): biochemical
In one assay the target is T1, IKKα (Homo sapiens, UniProt O15111).
T1 sequence (O15111 1-745): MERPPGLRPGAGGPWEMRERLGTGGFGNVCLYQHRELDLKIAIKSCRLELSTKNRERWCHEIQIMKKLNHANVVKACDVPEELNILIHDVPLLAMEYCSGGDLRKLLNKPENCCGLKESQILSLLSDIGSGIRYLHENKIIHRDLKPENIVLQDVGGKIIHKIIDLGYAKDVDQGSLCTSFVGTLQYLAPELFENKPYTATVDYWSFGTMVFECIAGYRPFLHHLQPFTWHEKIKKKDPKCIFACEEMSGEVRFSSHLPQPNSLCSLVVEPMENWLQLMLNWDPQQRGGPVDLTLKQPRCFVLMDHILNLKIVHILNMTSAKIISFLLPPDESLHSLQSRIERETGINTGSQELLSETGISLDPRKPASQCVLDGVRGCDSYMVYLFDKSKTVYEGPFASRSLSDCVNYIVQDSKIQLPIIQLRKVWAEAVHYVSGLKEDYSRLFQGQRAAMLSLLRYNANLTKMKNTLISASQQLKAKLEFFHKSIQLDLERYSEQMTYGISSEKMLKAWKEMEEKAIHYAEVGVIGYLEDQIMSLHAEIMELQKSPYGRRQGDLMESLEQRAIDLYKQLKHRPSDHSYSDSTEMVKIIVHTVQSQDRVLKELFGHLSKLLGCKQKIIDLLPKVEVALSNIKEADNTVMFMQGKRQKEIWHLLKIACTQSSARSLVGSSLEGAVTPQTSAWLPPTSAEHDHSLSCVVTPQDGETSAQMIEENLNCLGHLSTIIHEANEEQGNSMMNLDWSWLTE
As to the kind of experiment: in-house DELFIA kinase assay, IKKα. The source says: (§1) To examine the pyrrolo[2,3 -b]pyridines as an alternative scaffold, we adopted the AIPP core because it had similar dimensions to 1 SU909, with HBD/HBA motifs positioned at the scaffold extremities to interact with both the hinge region and the G-loop wall of IKKα, a rationale we had previously proposed as the basis for imparting selectivity. A preliminary set of AIPP derivatives was designed to explore its utility as an IKK-targeting scaffold, whilst incorporating additional functionality through which to introduce selectivity for the IKKα isoform (2-4 SU1087, SU1266 and SU1253; FIG. 3). This was achieved by initially adopting two different approaches: either appending a hydrophobic moiety to the pyrrolo[2,3 -b]pyridine motif as a fused form to afford the tricyclic derivatives 2 and 3 SU1266 and SU1087, or as a phenyl substituent to introduce flexibility with the central pyrrolo[2,3 -b]pyridine moiety in 4 SU1253 . […] The pyrrolo[2,3 -b]pyridine was bound to the hinge region in the classical HBA/HBD motif with the GK+3 NH and C═O backbone, whilst the aminoindazole projected towards the top of the pocket to interact with the G-loop (FIG. 4A). […] In both isoforms, the 2 -phenyl moiety was oriented out from the hinge towards the exposed solvent area.

A further assay concerns IKKα over IKKβ. In words: selectivity for IKKα over IKKβ from the kinase assay.
Text: as §1
To shift the selectivity profile towards IKKα, we selected 4 SU1253 for structural optimization based on the notion that sigma-bond rotation between the phenyl ring and the pyrrolo[2,3 -b]pyridine would inbuild the flexibility required to engage with the three dimensional array of residues nearby to exploit differences between the two isoforms. Furthermore, this would enable the inclusion of moieties that could also project into solvent and address solubility considerations. Small groups (NH2, OH, OMe, OEt and F) were initially introduced into the phenyl ring to evaluate their impact on the selectivity profile against both IKKs (5 a-g SU1354 -SU1373, Table 2 ). Our goal was to achieve a 1:50 selectivity ratio of IKKα to IKKβ, with a minimum IKKβ inhibitory Ki of 500 nM.

Another assay addresses T2, IKKβ (Homo sapiens, UniProt O14920).
T2 sequence (O14920 1-756): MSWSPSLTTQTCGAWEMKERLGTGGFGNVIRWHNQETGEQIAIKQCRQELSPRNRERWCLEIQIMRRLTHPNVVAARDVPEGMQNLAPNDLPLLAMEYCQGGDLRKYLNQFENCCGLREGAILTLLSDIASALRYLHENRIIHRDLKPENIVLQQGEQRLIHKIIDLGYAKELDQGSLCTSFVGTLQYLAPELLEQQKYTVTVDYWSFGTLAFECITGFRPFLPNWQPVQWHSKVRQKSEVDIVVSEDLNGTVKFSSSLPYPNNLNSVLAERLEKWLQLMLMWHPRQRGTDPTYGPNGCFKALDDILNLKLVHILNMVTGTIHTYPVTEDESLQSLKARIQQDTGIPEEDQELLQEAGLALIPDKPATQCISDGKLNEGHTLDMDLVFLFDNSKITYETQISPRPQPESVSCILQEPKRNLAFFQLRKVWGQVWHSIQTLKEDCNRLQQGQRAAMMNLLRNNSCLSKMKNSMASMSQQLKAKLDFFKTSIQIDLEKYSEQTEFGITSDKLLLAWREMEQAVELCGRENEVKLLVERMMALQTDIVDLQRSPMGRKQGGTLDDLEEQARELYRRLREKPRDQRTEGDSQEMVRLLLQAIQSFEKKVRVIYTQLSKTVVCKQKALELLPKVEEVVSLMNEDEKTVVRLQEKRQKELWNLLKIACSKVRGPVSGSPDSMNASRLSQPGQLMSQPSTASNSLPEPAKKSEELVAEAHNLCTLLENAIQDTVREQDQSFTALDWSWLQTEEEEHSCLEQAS
In words: in-house DELFIA kinase assay, IKKβ. The text has this:
To examine the pyrrolo[2,3 -b]pyridines as an alternative scaffold, we adopted the AIPP core because it had similar dimensions to 1 SU909, with HBD/HBA motifs positioned at the scaffold extremities to interact with both the hinge region and the G-loop wall of IKKα, a rationale we had previously proposed as the basis for imparting selectivity. A preliminary set of AIPP derivatives was designed to explore its utility as an IKK-targeting scaffold, whilst incorporating additional functionality through which to introduce selectivity for the IKKα isoform (2-4 SU1087, SU1266 and SU1253; FIG. 3). This was achieved by initially adopting two different approaches: either appending a hydrophobic moiety to the pyrrolo[2,3 -b]pyridine motif as a fused form to afford the tricyclic derivatives 2 and 3 SU1266 and SU1087, or as a phenyl substituent to introduce flexibility with the central pyrrolo[2,3 -b]pyridine moiety in 4 SU1253 .

Each structure is given as a SMILES string.

As a reminder, the Ki is the dissociation constant of the complex between target and ligand, obtained from inhibition or displacement. A higher Ki goes with a looser hold on the target. Regarding `Nc1n[nH]c2ccc(-c3ccnc4[nH]c(-c5ccc(OCc6ccccc6)nc5)cc34)cc12` [6d SU1350, 5-(2-(6-(Benzyloxy)pyridin-3-yl)-1 H-pyrrolo[2,3-b]pyridin-4-yl)-1 H-indazol-3-amine], the figures for the Ki on IKKα and at IKKβ were 12 nM and 22 nM, respectively. In the assay with IKKα over IKKβ, the “selectivity for IKKα over IKKβ, in words” value is on record as “reduced selectivity”.
In the case of `CC(C)COc1cccc(-c2cc3c(-c4ccc5[nH]nc(N)c5c4)ccnc3[nH]2)c1` [5o SU1367, 5-(2-(3 -Isobutoxyphenyl)-1 H-pyrrolo[2,3-b]pyridin-4-yl)-1 H-indazol-3-amine], the Ki at IKKα came to 19 nM; on IKKβ it was 458 nM. Further, the “selectivity for IKKα over IKKβ, in words” value with IKKα over IKKβ is given as “tended to improve selectivity”. Further, the “IKKβ inhibition, in words” value at IKKβ was “lowest activity against IKKβ”.
In the case of `Nc1n[nH]c2ccc(-c3ccnc4[nH]c(-c5cccc(CNC6CCCC6)c5)cc34)cc12` [5n SU1550, 5-(2-(3-((cyclopentylamino)methyl)phenyl)-1 H-pyrrolo[2,3-b]pyridin-4-yl)-1 H-indazol-3-amine], the figures for the Ki on IKKα and on IKKβ were 10 nM and 191 nM, respectively. Besides, the “selectivity for IKKα over IKKβ, in words” value with IKKα over IKKβ was “tended to improve selectivity”.
As to `Nc1n[nH]c2ccc(-c3ccnc4[nH]c(-c5ccc(OCc6ccccc6)cc5)cc34)cc12` [5s SU1334], the Ki on IKKα is 16 nM; at IKKβ it was 189 nM. Besides, the “selectivity for IKKα over IKKβ, in words” value in the assay on IKKα over IKKβ is listed as “tended to improve IKKβactivity to reduce selectivity”.
`Nc1n[nH]c2ccc(-c3ccnc4[nH]c(-c5cccc(O)c5)cc34)cc12` [5d SU1348, 3-(4-(3 -Amino-1 H-indazol-5-yl)-1 H-pyrrolo[2,3-b]pyridin-2-yl)phenol]: the inhibition constant (Ki) at IKKα came out at 5 nM; at IKKβ it was 26 nM.
As to `Nc1n[nH]c2ccc(-c3ccnc4[nH]c(-c5cccc(S(=O)(=O)N6CCOCC6)c5)cc34)cc12` [5aa SU1311, 5-(2-(3-(Morpholinosulfonyl)phenyl)-1 H-pyrrolo[2,3-b]pyridin-4-yl)-1 H-indazol-3-amine], the inhibition constant (Ki) on IKKα stood at 25 nM; on IKKβ it was 149 nM.
On IKKα, `Nc1n[nH]c2ccc(-c3ccnc4[nH]c(-c5cccc(OCC6CCOCC6)c5)cc34)cc12` [5x SU1335, 5-(2-(3-((Tetrahydro-2 H-pyran-4-yl)methoxy)phenyl)-1 H-pyrrolo[2,3-b]pyridin-4-yl)-1 H-indazol-3-amine] gave a Ki of 8 nM. In addition, at IKKβ, the “IKKβ inhibition, in words” value is “good IKKβ inhibition” and the Ki turned out to be 122 nM.
Take `CCOc1ccccc1-c1cc2c(-c3ccc4[nH]nc(N)c4c3)ccnc2[nH]1` [5b SU1368, 5-(2-(2 -Ethoxyphenyl)-1 H-pyrrolo[2,3-b]pyridin-4-yl)-1 H-indazol-3-amine]: the results for the Ki at IKKα and at IKKβ were 8 nM and 86 nM, respectively.
For the compound `CS(=O)(=O)Nc1cccc(-c2cc3c(-c4ccc5[nH]nc(N)c5c4)ccnc3[nH]2)c1` [5j SU1288, N-(3-(4-(3 -Amino-1 H-indazol-5-yl)-1 H-pyrrolo[2,3-b]pyridin-2-yl)phenyl)methanesulfonamide], the figures for the inhibition constant Ki on IKKα and on IKKβ were 3 nM and 109 nM, respectively.
Consider `COc1ccc(COc2cccc(-c3cc4c(-c5ccc6[nH]nc(N)c6c5)ccnc4[nH]3)c2)cc1` [5z SU1363, 5-(2-(3-((4 -Methoxybenzyl)oxy)phenyl)-1 H-pyrrolo[2,3-b]pyridin-4-yl)-1 H-indazol-3-amine], for which the results for the inhibition constant Ki on IKKα and at IKKβ were 43 nM and 166 nM, respectively.
Consider `Nc1n[nH]c2ccc(-c3ccnc4[nH]c(-c5cccc(OCc6ccccn6)c5)cc34)cc12` [5w SU1324, 5-(2-(3-(pyridin-2-ylmethoxy)phenyl)-1 H-pyrrolo[2,3-b]pyridin-4-yl)-1 H-indazol-3-amine], for which the Ki at IKKα came out at 16 nM. Besides, on IKKβ, the “IKKβ inhibition, in words” value is given as “lowest activity against IKKβ” and the Ki was found to be 402 nM.
Regarding `COc1cccc(-c2cc3c(-c4ccc5[nH]nc(N)c5c4)ccnc3[nH]2)c1` [5e SU1332, 5-(2-(3 -Methoxyphenyl)-1 H-pyrrolo[2,3-b]pyridin-4-yl)-1 H-indazol-3-amine], the inhibition constant (Ki) on IKKα was determined as 5 nM; at IKKβ, 40 nM.
Turning to `Nc1n[nH]c2ccc(-c3ccnc4[nH]c(-c5cc(F)nc(SCc6ccccc6)c5)cc34)cc12` [6i SU1380, 5-(2-(2-(Benzylthio)-6-fluoropyridin-4-yl)-1 H-pyrrolo[2,3-b]pyridin-4-yl)-1 H-indazol-3-amine], the Ki came out at 127 nM on IKKα and 3000 nM on IKKβ.
In the same order, the values of `Nc1n[nH]c2ccc(-c3ccnc4[nH]c(-c5ccnc(SCc6ccccc6)c5)cc34)cc12` [6h SU1615, 5-(2-(2-(Benzylthio)pyridin-4-yl)-1 H-pyrrolo[2,3-b]pyridin-4-yl)-1 H-indazol-3-amine] are 5 nM and 1180 nM.
`Nc1n[nH]c2ccc(-c3ccnc4[nH]c(-c5cccc(CNc6ccccc6)c5)cc34)cc12` [5p SU1549, 5-(2-(3-((Phenylamino)methyl)phenyl)-1 H-pyrrolo[2,3-b]pyridin-4-yl)-1 H-indazol-3-amine]: at IKKα, the affinity corresponds to a Ki of 35 nM. Besides, on IKKβ, the “IKKβ inhibition, in words” value was “lowest activity against IKKβ” and affinity was put at a Ki of 470 nM.
In the case of `COCCNC(=O)c1cccc(-c2cc3c(-c4ccc5[nH]nc(N)c5c4)ccnc3[nH]2)c1` [5m SU1316, 3-(4-(3 -Amino-1 H-indazol-5-yl)-1 H-pyrrolo[2,3-b]pyridin-2-yl)-N-(2-methoxyethyl)benzamide], on IKKα, the Ki amounted to 15 nM. For the same compound, on IKKβ, the “IKKβ inhibition, in words” value is on record as “good IKKβ inhibition” and the affinity, expressed as Ki, was 107 nM.
For the compound `Nc1n[nH]c2ccc(-c3ccnc4[nH]c(-c5cc(O)cc(F)c5)cc34)cc12` [5f SU1384, 3-(4-(3 -Amino-1 H-indazol-5-yl)-1 H-pyrrolo[2,3-b]pyridin-2-yl)-5-fluorophenol], the Ki was 4 nM on IKKα and 42 nM at IKKβ.

The record behind these values is patent publication US20260315487A1, “IKK-ALPHA INHIBITORS” (Cancer Research Technology Limited, priority 2023, published 2026).
